From ChEMBL document CHEMBL2406948, “Skeletal rearrangement of seven-membered iminosugars: synthesis of (-)-adenophorine, (-)-1-epi-adenophorine and derivatives and evaluation as glycosidase inhibitors” (Bioorg Med Chem, 2013)

What was measured:
[1] = target: T1, Glucosylceramidase (Bos taurus) (UniProt Q2KHZ8); experiment: Inhibition of bovine liver beta-glucosidase at 1000 uM
T1 sequence (whole entry): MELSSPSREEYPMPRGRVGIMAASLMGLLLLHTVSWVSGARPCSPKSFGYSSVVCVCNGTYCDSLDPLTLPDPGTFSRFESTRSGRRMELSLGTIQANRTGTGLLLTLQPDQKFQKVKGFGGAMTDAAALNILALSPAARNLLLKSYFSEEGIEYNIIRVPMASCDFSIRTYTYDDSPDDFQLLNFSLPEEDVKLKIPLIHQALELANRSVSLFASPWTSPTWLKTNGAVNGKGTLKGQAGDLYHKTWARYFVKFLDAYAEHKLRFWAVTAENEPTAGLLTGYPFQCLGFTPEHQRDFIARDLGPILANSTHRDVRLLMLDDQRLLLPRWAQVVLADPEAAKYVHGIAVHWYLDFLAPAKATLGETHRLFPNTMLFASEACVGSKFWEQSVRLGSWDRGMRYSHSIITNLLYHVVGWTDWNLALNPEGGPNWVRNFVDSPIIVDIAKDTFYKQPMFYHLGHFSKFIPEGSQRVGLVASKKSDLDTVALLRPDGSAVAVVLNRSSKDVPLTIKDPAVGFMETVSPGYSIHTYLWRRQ

[2] = test system: Escherichia coli; experiment: Inhibition of Escherichia coli beta-glucuronidase at 1000 uM
[3] = target: T2, Tissue alpha-L-fucosidase (Bos taurus) (UniProt Q2KIM0); experiment: Inhibition of bovine kidney alpha-L-fucosidase at 1000 uM
T2 sequence (whole entry): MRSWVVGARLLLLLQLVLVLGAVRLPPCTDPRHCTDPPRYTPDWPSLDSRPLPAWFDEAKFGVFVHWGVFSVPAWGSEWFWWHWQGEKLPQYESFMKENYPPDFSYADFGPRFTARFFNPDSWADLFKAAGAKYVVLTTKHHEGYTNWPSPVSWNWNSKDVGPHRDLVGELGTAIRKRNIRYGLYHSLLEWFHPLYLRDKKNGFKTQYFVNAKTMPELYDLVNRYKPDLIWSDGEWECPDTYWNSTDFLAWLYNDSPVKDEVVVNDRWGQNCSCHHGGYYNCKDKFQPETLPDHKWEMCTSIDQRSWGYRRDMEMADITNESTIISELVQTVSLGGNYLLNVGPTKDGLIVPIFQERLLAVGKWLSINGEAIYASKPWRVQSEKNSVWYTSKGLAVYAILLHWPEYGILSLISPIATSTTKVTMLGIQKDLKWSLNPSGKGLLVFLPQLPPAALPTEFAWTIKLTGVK

[4] = test system: Penicillium decumbens; experiment: Inhibition of Penicillium decumbens alpha-L-rhamnosidase at 1000 uM
[5] = target: T3, Beta-galactosidase (Bos taurus) (UniProt Q58D55); experiment: Inhibition of bovine liver beta-galactosidase at 1000 uM
T3 sequence (whole entry): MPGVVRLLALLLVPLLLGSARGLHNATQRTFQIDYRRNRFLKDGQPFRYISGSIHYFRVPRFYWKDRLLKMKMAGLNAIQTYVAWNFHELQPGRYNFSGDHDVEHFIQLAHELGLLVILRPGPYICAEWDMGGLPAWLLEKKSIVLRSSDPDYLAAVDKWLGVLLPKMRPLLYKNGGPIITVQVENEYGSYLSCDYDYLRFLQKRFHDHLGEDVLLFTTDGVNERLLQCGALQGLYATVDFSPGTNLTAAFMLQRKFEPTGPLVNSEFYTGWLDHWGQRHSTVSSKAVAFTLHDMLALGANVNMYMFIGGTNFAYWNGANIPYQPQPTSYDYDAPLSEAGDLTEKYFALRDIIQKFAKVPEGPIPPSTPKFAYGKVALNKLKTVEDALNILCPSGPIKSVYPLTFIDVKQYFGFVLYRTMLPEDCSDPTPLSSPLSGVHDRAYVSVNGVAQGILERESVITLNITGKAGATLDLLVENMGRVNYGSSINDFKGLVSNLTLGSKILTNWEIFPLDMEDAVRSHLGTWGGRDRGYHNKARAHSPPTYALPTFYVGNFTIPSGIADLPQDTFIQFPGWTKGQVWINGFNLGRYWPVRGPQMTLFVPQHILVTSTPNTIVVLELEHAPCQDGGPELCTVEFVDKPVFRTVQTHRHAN

[6] = target: T4, Tissue alpha-L-fucosidase (Bos taurus, UniProt Q2KIM0); experiment: Inhibition of bovine kidney alpha-L-fucosidase
T4 sequence (Q2KIM0 whole entry): T2 sequence (whole entry)

[7] = Inhibition of Penicillium decumbens alpha-L-rhamnosidase
[8] = target: T5, Beta-galactosidase (Bos taurus, UniProt Q58D55); experiment: Inhibition of bovine liver beta-galactosidase
T5 sequence (Q58D55 whole entry): T3 sequence (whole entry)

[9] = Inhibition of Escherichia coli beta-glucuronidase

Row | inhibition [1] [%] | inhibition [2] [%] | inhibition [3] [%] | inhibition [4] [%] | inhibition [5] [%] | IC50 [6] [µM] | IC50 [7] [µM] | IC50 [8] [µM] | IC50 [9] [µM] | SMILES
1 | 24.6 | 3.1 | 36.7 | 5.3 | 12.1 |  |  |  |  | CC[C@H]1NC[C@@H](O)[C@@H](O)[C@H](O)[C@H]1O
2 | 21.6 | 12.9 | 0 | 0 | 9.7 |  |  |  |  | CC[C@@H]1N[C@H](CC)[C@H](O)[C@@H](O)[C@@H]1O
3 | 12.6 | 7.2 |  | 37.7 | 6.5 | 72 |  |  |  | CC[C@@H]1N[C@@H](CO)[C@@H](O)[C@H](O)[C@H]1O
4 |  | 18.1 | 37.2 |  |  |  | 231 | 526 |  | CC[C@@H]1NC[C@@H](O)[C@@H](O)[C@H](O)[C@H]1O
5 | 32.8 | 11 |  | 2.4 | 20.3 | 208 |  |  |  | CC[C@H]1N[C@@H](CO)[C@@H](O)[C@H](O)[C@H]1O
6 | 13.2 |  |  | 13 | 26.8 | 713 |  |  | 586 | CCC[C@@H]1N[C@@H](CO)[C@@H](O)[C@H](O)[C@H]1O
